{
  "source": "paper PMC5681660",
  "about": "“Reduced hepatitis B and D viral entry using clinically applied drugs as novel inhibitors of the bile acid transporter NTCP” (Scientific Reports, 2017)",
  "key": {"HBV [1]": {"test_system": "HBV", "assay": "HBV infection of primary human hepatocytes (literature)", "type": "cell-based, hepatitis B virus"}, "HBV [2]": {"test_system": "HBV", "details": "primary human hepatocytes, cited from earlier work"}, "[3]": {"test_system": "HDV RNA and HBV DNA serum levels", "details": "chronic hepatitis delta patients, 24 weeks; cited from earlier work"}, "human NTCP": {"target": "T1, human NTCP (Homo sapiens, UniProt Q14973)", "T1 sequence (Q14973 1-349)": "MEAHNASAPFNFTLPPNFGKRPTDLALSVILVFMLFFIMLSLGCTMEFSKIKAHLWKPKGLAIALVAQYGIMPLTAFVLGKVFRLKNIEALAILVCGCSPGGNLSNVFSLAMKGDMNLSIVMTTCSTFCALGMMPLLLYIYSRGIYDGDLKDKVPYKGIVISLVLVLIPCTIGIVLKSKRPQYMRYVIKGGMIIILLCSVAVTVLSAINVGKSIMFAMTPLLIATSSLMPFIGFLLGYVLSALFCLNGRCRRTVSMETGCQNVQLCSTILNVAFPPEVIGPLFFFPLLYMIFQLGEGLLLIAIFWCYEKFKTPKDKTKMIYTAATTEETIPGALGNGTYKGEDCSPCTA", "assay": "Sodium dependent tauro-ursodeoxycholic acid uptake into U2OS-HA-hNTCP cells", "type": "cell-based", "set-up": "HA; expressed in transfected cells", "method": "Figure 4 Myrcludex B inhibits uptake of tauro-ursodeoxycholic acid. Sodium dependent tauro-ursodeoxycholic acid uptake into U2OS-HA-hNTCP cells was reduced in the presence of Myrcludex B. N = 6 wells/condition, data are depicted as mean ± SD.\nBuffers were set to pH 7.4, at room temperature. After washing, cells were pre-incubated for 10 minutes with drugs in 50 µL uptake buffer. […] After incubation, buffer was removed and cells were washed 2x with ice-cold PBS. Cells were lysed for a minimum of 30 minutes in 30 µL/well 0.05% SDS in water. When lysis was complete, 120 µL MicroScint™-20 (PerkinElmer) was added to the wells and radioactivity was measured by liquid scintillation counting."}},
  "note": "“Also recorded” adds a separate entry of the source. Like-named read-outs stand apart in the source and are kept apart here.",
  "data": [
    {"substance": "Myrcludex B", "values": [
      {"measurement": "fold lower concentration for blocking HBV infection than IC50 for bile acid transport", "setting": "HBV [1]", "result": "at least 50 fold"},
      {"measurement": "IC50", "setting": "HBV [2]; read-out: concentration inhibiting HBV infection, HBeAg", "result": 0.083, "unit": "nM"},
      {"measurement": "IC50", "setting": "HBV [2]; read-out: concentration inhibiting HBV infection, HBsAg", "result": 0.669, "unit": "nM"},
      {"measurement": "HDV RNA and HBV DNA serum levels", "setting": "[3]", "result": "Largely reduced"},
      {"measurement": "sodium-dependent uptake of tauro-ursodeoxycholic acid", "setting": "human NTCP", "result": "largely inhibited; also recorded: reduced"}
    ]}
  ]
}
